{"source": "paper PMC10004598", "about": "“Identification and Characterization of a Novel Cathelicidin from Hydrophis cyanocinctus with Antimicrobial and Anti-Inflammatory Activity” (Molecules, 2023)", "key": {"[1]": {"system": "E. coli", "format": "cell-based, Escherichia coli", "settings": "compound at MBC, 37 °C", "experimental": "Time-killing kinetics were determined with the method as previously described. […] The mixture was sampled 50 μL at 5, 15, 30, 60, 120, 240, and 480 min. Dilute the samples with sterile MH broth to a 10-fold gradient. Bacterial suspensions were plated at MH agar plates. After incubation at 37 °C for 12 h, the number of colonies was calculated."}, "[2]": {"system": "K. pneumoniae 50 (clinical isolate)", "experiment": "microbe, parasite or virus in culture", "experimental": "(§1) The microorganisms (Staphylococcus aureus [ATCC 25923], Escherichia coli [ATCC 25922], and Propionibacterium acnes [ATCC 6919]) were obtained from Fuxiang Biotechnology (Shanghai, China). The five strains of K. pneumoniae clinical isolates (44, 48, 49, 50, and 51) were obtained from the Department of Critical Care Medicine, Shanghai Tenth People’s Hospital.\n(§2) The antimicrobial assay was performed by broth microdilution method, following the guidelines of the Clinical and Laboratory Standards Institute. Strains (mentioned in Section 4.3) were inoculated into Mueller-Hinton broth (MH), oscillated (37 °C, 220 rpm, 12 h) to the logarithmic growth stage, and then diluted to 10^6 CFU/mL. […] Then, the absorbance was measured at 600 nm in a microplate reader (Epoch Biotek, Winooski, VT, USA). […] The minimum inhibitory concentration (MIC) was defined as the lowest concentration of an antimicrobial where there was no visible growth. After measuring the MIC, a 50 μL sample was taken from the growth well without visible bacteria, serially diluted with phosphate-buffered saline (PBS, pH = 7.0), then spread on an MH agar solid medium and incubated at 37 °C for 12 h. The number of colonies was calculated, and the minimum drug concentrations that killed 99.9% of bacteria were considered the minimum bactericidal concentration (MBC) of the peptide."}, "[3]": {"system": "Escherichia coli [ATCC 25922]", "experiment": "microbe, parasite or virus in culture", "experimental": "as §1, §2"}, "[4]": {"system": "Propionibacterium acnes [ATCC 6919]", "experiment": "microbe, parasite or virus in culture", "experimental": "as §1, §2"}, "[5]": {"system": "K. pneumoniae 49 (clinical isolate)", "experiment": "microbe, parasite or virus in culture", "experimental": "as §1, §2"}, "[6]": {"system": "Klebsiella pneumoniae 44 (clinical isolate)", "experiment": "microbe, parasite or virus in culture", "experimental": "as §1, §2"}, "[7]": {"system": "K. pneumoniae 48 (clinical isolate)", "experiment": "microbe, parasite or virus in culture", "experimental": "as §1, §2"}, "[8]": {"system": "K. pneumoniae 51 (clinical isolate)", "experiment": "microbe, parasite or virus in culture", "experimental": "as §1, §2"}, "[9]": {"system": "E. coli", "settings": "mean of three independent experiments in triplicate", "experimental": "E. coli was inoculated into MH broth and oscillated (37 °C, 220 rpm, 12 h) to the logarithmic growth stage. Then diluted to 10^6 CFU/mL. […] The MICs of these peptides were then measured."}, "[10]": {"system": "E. coli", "settings": "mean of three independent experiments in triplicate", "experimental": "E. coli was inoculated into MH broth and oscillated (37 °C, 220 rpm, 12 h) to the logarithmic growth stage. Then diluted to 10^6 CFU/mL in MH broth with NaCl (0, 50, 100, 150, and 200 mM) or CaCl2 (1, 2, and 4 mM). […] The absorption value was detected at 600 nm.", "remark": "listed apart in the source"}, "[11]": {"system": "Staphylococcus aureus [ATCC 25923]", "settings": "broth microdilution, MH broth, 37 °C, 16–20 h", "experimental": "as §1, §2"}, "[12]": {"system": "human erythrocytes", "settings": "human erythrocytes 2% suspension, 250 μg/mL, 37 °C, 0.5 h, absorbance 540 nm, 1% Triton X-100 = complete hemolysis; mean of three independent experiments in triplicate", "experimental": "Centrifuge at 25 °C at 1500 rpm for 5 min. Transfer 180 μL of supernatant to a 96-well plate and measure absorbance value at 540 nm. Normal saline was used as a negative control and 1% Triton X-100 solution as a positive control (complete hemolysis)."}, "[13]": {"system": "S. aureus biofilm formation", "experiment": "Biofilm inhibition assay (crystal violet)", "format": "cell-based, Staphylococcus aureus", "settings": "2 × MIC, 37 °C, 24 h, absorbance 600 nm, three independent experiments in quintuplicate", "experimental": "Sterile PBS was used to wash 3 times and methanol was used to fix it for 0.5 h. After drying, 1% crystal violet solution was used to stain for 0.5 h, washed 3 times with sterilized deionized water, and dissolved with 100 μL anhydrous ethanol. The absorbance was measured at 600 nm."}, "[14]": {"system": "E. coli", "settings": "human serum:peptide solution (10 mg/mL) 4:1 v:v, 37 °C, read-out MIC, mean of three independent experiments in triplicate", "method": "The same amount of solution was taken at each time point and gradient dilution was carried out with normal saline."}, "[15]": {"system": "E. coli", "settings": "mean of three independent experiments in triplicate", "experimental": "E.coli was inoculated into MH broth and oscillated (37 °C, 220 rpm, 12 h) to the logarithmic growth stage. Then diluted to 10^6 CFU/mL. […] Then, the absorbance was measured at 600 nm.", "remark": "listed apart in the source"}, "[16]": {"system": "HaCaT (human immortal keratinocyte cell line)", "experiment": "Cytotoxicity assay (CCK-8)", "format": "cell-based", "settings": "32 μg/mL, 24 h, mean of three independent experiments in triplicate", "experimental": "(§3) RAW264.7 (murine macrophage cell line), L929 (mouse fibroblast cell line), and HaCaT (human immortal keratinocyte cell line) were purchased from the Shanghai Institute of Biochemistry and Cell Science, Chinese Academy of Sciences.\n(§4) The cells were cultured using a DMEM medium containing 10%FBS and 1% penicillin-streptomycin solution. In 96-well plates, 100 µL of cells (2 × 10^4 cells/well) in DMEM were seeded and cultured overnight in an incubator at 5% CO2 and 37 °C. […] Subsequently, the medium was replaced by 100 μL DMEM containing 10% Cell Counting Kit-8 reagent, and incubated for 0.5 h at 37 °C. The absorbance was measured at […]."}, "[17]": {"system": "L929 (mouse fibroblast cell line)", "experiment": "Cytotoxicity assay (CCK-8)", "format": "cell-based", "settings": "L929, 32 μg/mL, 24 h, mean of three independent experiments in triplicate", "experimental": "as §3, §4"}}, "note": "Like-named read-outs stand apart in the source and are kept apart here. No end group written: not given here.", "data": [{"compound": "CC1(C)S[C@@H]2[C@H](NC(=O)[C@H](N)c3ccccc3)C(=O)N2[C@H]1C(=O)O", "note": "[Ampicillin, reference compound]", "values": [{"measurement": "time at which bacteriostatic effect starts", "setting": "[1]", "value": "≥ 1", "unit": "h"}, {"measurement": "killing of E. coli within 8 h", "setting": "[1]; 8 h", "value": "failed to completely kill"}, {"measurement": "killing rate", "setting": "[1]; after 4 h", "value": "about 47%"}, {"measurement": "MIC", "setting": "[2]; Klebsiella pneumoniae", "value": "> 128", "unit": "µg/mL"}, {"measurement": "MBC", "setting": "[3]; ATCC25922, 12 h", "value": 16, "unit": "µg/mL"}, {"measurement": "MIC", "setting": "[4]; Cutibacterium acnes, ATCC6919", "value": 0.25, "unit": "µg/mL"}, {"measurement": "MIC", "setting": "[5]; Klebsiella pneumoniae", "value": "> 128", "unit": "µg/mL"}, {"measurement": "MIC", "setting": "[6]; Klebsiella pneumoniae", "value": "> 128", "unit": "µg/mL"}, {"measurement": "MIC", "setting": "[7]; Klebsiella pneumoniae", "value": "> 128", "unit": "µg/mL"}, {"measurement": "MIC", "setting": "[8]; Klebsiella pneumoniae", "value": "> 128", "unit": "µg/mL"}]}, {"compound": "KRFKKFFKKLRKSVKKRVKKFFKKPKVIGVSIPF [Hydrostatin-AMP2]", "values": [{"measurement": "MIC after incubation at pH 2", "setting": "[9]; peptide incubated in PBS pH 2 for 4 h at 37 °C", "value": 64, "unit": "μg/mL"}, {"measurement": "MIC after incubation at pH 12", "setting": "[9]; peptide incubated in PBS pH 12 for 4 h at 37 °C", "value": 64, "unit": "μg/mL"}, {"measurement": "MIC", "setting": "[10]; Control (NaCl 0 mM, untreated peptide)", "value": 16, "unit": "µg/mL"}, {"measurement": "MIC", "setting": "[10]; MH broth with CaCl2 1 mM", "value": 64, "unit": "µg/mL"}, {"measurement": "MIC", "setting": "[10]; MH broth with CaCl2 2 mM", "value": 64, "unit": "µg/mL"}, {"measurement": "MIC", "setting": "[10]; MH broth with CaCl2 4 mM", "value": 128, "unit": "µg/mL"}, {"measurement": "MIC", "setting": "[10]; MH broth with NaCl 50 mM", "value": 32, "unit": "µg/mL"}, {"measurement": "MIC", "setting": "[10]; MH broth with NaCl 100 mM", "value": 32, "unit": "µg/mL"}, {"measurement": "MIC", "setting": "[10]; MH broth with NaCl 150 mM", "value": 32, "unit": "µg/mL"}, {"measurement": "MIC", "setting": "[10]; MH broth with NaCl 200 mM", "value": 64, "unit": "µg/mL"}, {"measurement": "MIC", "setting": "[11]", "value": 32, "unit": "µg/mL"}, {"measurement": "Hemolysis", "setting": "[12]", "value": 4.6, "unit": "%"}, {"measurement": "inhibition of biofilm formation", "setting": "[13]", "value": 71.02, "unit": "%"}, {"measurement": "MIC", "setting": "[2]; K. pneumoniae 50, clinical isolate, broth microdilution, MH broth, 37 °C, 16–20 h", "value": 32, "unit": "µg/mL"}, {"measurement": "MIC", "setting": "[3]; broth microdilution (CLSI), MH broth, 10^6 CFU/mL, 37 °C, 16–20 h, absorbance 600 nm", "value": 16, "unit": "µg/mL"}, {"measurement": "MBC", "setting": "[3]; minimum concentration killing 99.9% of bacteria, plating on MH agar, 37 °C, 12 h", "value": 32, "unit": "µg/mL"}, {"measurement": "MIC", "setting": "[4]; Propionibacterium acnes, broth microdilution, MH broth, 37 °C, 16–20 h", "value": 32, "unit": "µg/mL"}, {"measurement": "MIC", "setting": "[5]; K. pneumoniae 49, clinical isolate, broth microdilution, MH broth, 37 °C, 16–20 h", "value": 32, "unit": "µg/mL"}, {"measurement": "MIC", "setting": "[6]; Klebsiella pneumoniae 44, clinical isolate, broth microdilution, MH broth, 37 °C, 16–20 h", "value": 32, "unit": "µg/mL"}, {"measurement": "MIC", "setting": "[7]; K. pneumoniae 48, clinical isolate, broth microdilution, MH broth, 37 °C, 16–20 h", "value": 16, "unit": "µg/mL"}, {"measurement": "MIC", "setting": "[8]; K. pneumoniae 51, clinical isolate, broth microdilution, MH broth, 37 °C, 16–20 h", "value": 32, "unit": "µg/mL"}, {"measurement": "MIC after incubation with human serum", "setting": "[14]; 1 h", "value": 32, "unit": "µg/mL"}, {"measurement": "MIC after incubation with human serum", "setting": "[14]; 2 h", "value": 32, "unit": "µg/mL"}, {"measurement": "MIC after incubation with human serum", "setting": "[14]; 3 h", "value": 32, "unit": "µg/mL"}, {"measurement": "MIC after incubation at temperature", "setting": "[15]; peptide incubated at 4 °C for 1 h", "value": 32, "unit": "µg/mL"}, {"measurement": "MIC after incubation at temperature", "setting": "[15]; peptide incubated at 37 °C for 1 h", "value": 32, "unit": "µg/mL"}, {"measurement": "MIC after incubation at temperature", "setting": "[15]; peptide incubated at 80 °C for 1 h", "value": 32, "unit": "µg/mL"}, {"measurement": "MIC after incubation at temperature", "setting": "[15]; peptide incubated at 100 °C for 1 h", "value": 64, "unit": "µg/mL"}, {"measurement": "Cell Death", "setting": "[16]", "value": 5.89, "unit": "%"}, {"measurement": "Cell Death", "setting": "[17]", "value": 8.08, "unit": "%"}]}]}
